Results taken from patent publication US6261760A, “Regulation of the cell cycle by sterols” (priority 1999, dated 2001).
Entries after “also recorded” stand apart in the source; their conditions may differ. Where two headings read alike, the source gives them in different places. *1 amine or outer side, *2 acyl side, *3 side chain or, on linkers, in order; H or OH if unused. Where a SMILES comes first, the peptide text is derived from it. Bridges are numbered along the chain shown (N, C = ends). Roman numbers before positions name the chains, in order. [ ]: non-standard residue; d: D form. Actinocin(9to1) = Cc1c2oc3c(C)ccc(C(=O)[*:1])c3nc-2c(C(=O)[*:2])c(N)c1=O; NMeV = CN[C@H](C(=O)O)C(C)C; Nle = CCCC[C@H](N)C(=O)O; Sar = CNCC(=O)O

Columns and labels:
[1] = tested on: LDL FC uptake by fibroblast monolayers; test: Transfer of LDL-derived 3H-FC into fibroblast monolayers with metabolic inhibitors (Example 2); type: cell-based, human; design: Emax: dose or concentration left out as unconfirmed; conditions: for effect on uptake of 3H-FC from LDL: brefeldin A, vinblastine, taxol, nocodazole, NEM 2 mM; for inhibition at higher concentration: 100 mM (monensin: up to 100 mM)
[2] = tested on: caveolin mRNA; test: Caveolin mRNA levels (Northern blot)
[3] = tested on: intracellular FC transport to the cell surface in fibroblast monolayers; test: Transfer of intracellular 3H-FC to the cell surface (cholesterol oxidase); type: cell-based, human; conditions: in words
Protocol: This assay utilized the finding (see Example 1) that only FC in the caveolar fraction of the plasma membrane fraction was modified by cholesterol oxidase in unfixed fibroblast monolayers.
The rate at which intracellular LDL-derived ^3 H-FC became accessible at the cell surface was measured as follows. Cell monolayers were labeled with ^3 H-FC LDL under the conditions shown for each experiment. Unbound and adsorbed LDL were removed as described above. In some experiments metabolic inhibitors of different transport steps were then added for 30 min at 15° C. […] Cholesterol oxidase (Boehringer-Manheim, Indianapolis, Ind., USA) was added in PBS to a final concentration of 1 U ml^-1. Incubation was for 4 h at 0° C. The cells were washed with ice-cold PBS, and extracted with 0.1 N NAOH. Cell total lipid was extracted with chloroform-methanol (1:1 v/v). […] .
Fibroblast monolayers were prelabeled with FC-labeled LDL for 2 min at 31° C. Medium and surface-bound labeled LDL were removed as described above. The cells were incubated with inhibitors of intracellular transport for 30 min at 15° C. Movement of FC label to the cell surface remained negligible (FIG. 11). The cells were brought to 31° C. for 15 min, and then cooled on wet ice. ^3 H-FC transfer to the cell surface (in the presence and absence of inhibitor) was assayed with cholesterol oxidase as described above.

[4] = tested on: LDL FC uptake by fibroblast monolayers; test: Effects of metabolic inhibitors on uptake of 3H-cholesterol from LDL (Example 1); conditions: for effect on LDL FC uptake: in words
[5] = tested on: fibroblasts; conditions: cited from earlier work
[6] = tested on: LDL FC uptake by fibroblast monolayers; conditions: for effect on LDL FC uptake: in words
[7] = tested on: fibroblast monolayers; test: FC efflux from fibroblast monolayers (3H-FC label); type: cell-based, human; conditions: in words
Protocol: Fibroblast monolayers were equilibrated with ^3 H-FC-labeled native plasma or with isolated ^3 H-labeled LDL, as specified for each experiment. Following incubation, the dishes were washed with albumin-complete PBS and then (×4) with complete PBS. They were then incubated for 3 min with unlabeled plasma or lipoprotein fractions and the rate of appearance of radioactivity in the medium determined. Samples of medium ([…]) were immediately chilled in ice water and centrifuged (10 min, 2000×g) at 0-2° C. ^3 H-cholesterol radioactivity in the supernatant was either assayed directly, or fractionated by agarose gel electrophoresis. FC efflux was linear as previously reported (Kawano et al., Biochemistry, 32: 5025-5028 (1993)).
For electrophoresis, […] portions of labeled medium were added to strips of 0.75% w/v agarose in 0.025 M barbital buffer (pH 8.6) and separated as previously described (Fielding et al., Biochemistry, 30: 8551-8557 (1991)). 2.5 mm gel fractions were then collected, and radioactivity measured. The location of major lipoprotein classes was determined from strips run simultaneously with whole native plasma equilibrated (60 min, 37° C.) With ^3 HFC.
Rates of FC influx and efflux between medium and fibroblast monolayers preincubated for 24 h with 7-80% native human plasma in DMEM were determined. Cells equilibrated in 80% compared to 7% v/v plasma contained 35-40% more total cholesterol but only 10-15% more FC. In 50% v/v plasma, cholesteryl ester levels were lower than in 80% plasma but FC levels were almost the same. Rates of transfer of FC between the cells and their extracellular medium were determined for each plasma dilution. […] was measured as the rate of transfer of ^3 H-FC radioactivity from labeled native plasma to unlabeled cells. […] was determined as the rate of transfer of radioactivity from uniformly labeled cells to unlabeled native plasma medium.

[8] = tested on: LDL-receptor deficient cells (GM 2000 line); test: FC transfer from LDL to LDL receptor-deficient cells (GM 2000); type: cell-based
[9] = tested on: normal human skin fibroblasts; test: Cell synchronization by aphidicolin (flow cytometry); type: cell-based
Protocol: Normal human skin fibroblasts were cultured in 10% fetal calf serum in Dulbecco's modified Eagles medium (DMEM). […] After 3 days, dishes were incubated with aphidicolin (4 μg/ml)(CalBiochem, San Diego, Calif.) to inhibit DNA polymerase, leading to cell arrest immediately before S-phase (Tobey et al. (1988) Expt. Cell Res. […]). After 24 h incubation with aphidicolin, the inhibitor was removed for a further 12 h, then restored for a `double block` at 8 μg/ml for a further 24 h (Sourlingas et al. (1996) Anal. Biochem. 234:104-107). After final removal from inhibitor into 10% serum-DME medium, the cells during incubation over the next 32 h at 37° C. […]
After 3 days, dishes were incubated with aphidicolin (4 μg/ml)(CalBiochem, San Diego, Calif.) to inhibit DNA polymerase, leading to cell arrest immediately prior to DNA synthesis (S-phase) (Tobey et al. (1988) Exptl. Cell Res. 179: 400-416, Sourlingas and Sekeri-Pataryas (1996) Anal. Biochem. 234: 104-107.). […] Cell synchronization was assessed by flow cytometry using the cell permeable stain Hoechst 33342 (Molecular Probes, Eugene, Oreg.)(Haas-Kogan et al. (1995) EMBO J. 14: 461-472.). […] Samples were analysed on a FACStar Plus (Becton Dickinson, San Jose, Calif.). Data was analysed using Lysis II software (Becton Dickinson). […]

Compound: COC1=CC(C)=CC(C)C(O)C(C)CC(C)=CC=CC(OC)C(C(C)C(O)C(C)C2(O)CC(O)C(C)C(C(C)C)O2)OC1=O (single isomer, unassigned) [Bafilomycin A1]
- Emax ([1]; Homo sapiens, Fibroblast, read-out: maximal effect on LDL-FC uptake): 30%

Compound: CCCC[C@@H](C=O)NC(=O)[C@H](CC(C)C)NC(=O)[C@H](CC(C)C)NC(C)=O [ALLN] (Ac-Leu-Leu-[Nle]-aldehyde)
- effect on caveolin mRNA levels / caveolin gene expression ([2]; 25 μM ALLN, 7% or 80% v/v plasma): superinhibited caveolin mRNA levels regardless of LDL-FC; also recorded: superinhibited the expression of the caveolin gene; also recorded: strongly inhibited caveolin mRNA levels even below the level expressed in cells equilibrated in 7% v/v plasma; also recorded: completely prevented the activation of caveolin mRNA levels observed in 80% v/v plasma

Compound: C[C@H]1CCC/C=C/[C@@H]2C[C@H](O)C[C@H]2[C@H](O)/C=C/C(=O)O1 [Brefeldin A]
- effect on transport of intracellular 3H-FC to the cell surface [3]: unaffected
- effect on uptake of 3H-FC from LDL [1]: without effect

Compound: CCN(CC)CCCC(C)Nc1ccnc2cc(Cl)ccc12 (stereo not drawn) [Chloroquine]
- effect on LDL FC uptake [4]: no effect

Compound: C=C1C(C)C2C(Cc3ccccc3)NC(=O)C23C(OC(C)=O)/C=C/C(C)(O)C(=O)C(C)CC=CC3C1O (stereo not drawn) [Cytochalasin D]
- effect on transport of intracellular 3H-FC to the cell surface [3]: no effect
- inhibition at higher concentration ([1]; listed as Cytochalasin): No greater inhibition
- inhibition at higher concentration ([1]; listed as cytochalasin D): no increase in inhibition

Compound: C=C[C@@]1(C)CC(=O)[C@]2(O)[C@@]3(C)[C@@H](O)CCC(C)(C)[C@@H]3[C@H](O)[C@H](OC(C)=O)[C@@]2(C)O1 [Forskolin]
- effect on transfer of newly-synthesized cholesterol to plasma membrane [5]: stimulated
- effect on LDL FC uptake [6]: no effect

Compound: CC(C)Cn1c(=O)n(C)c(=O)c2[nH]cnc21 [IBMX, isobutyl methylxanthine]
- effect on transfer of newly-synthesized cholesterol to plasma membrane [5]: stimulated
- activity ([6]; fibroblast monolayers, 60 min): 111%
- effect on LDL FC uptake [6]: no effect

Compound: O=[N+]([O-])[O-].[K+] [KNO3]
- effect on transport of intracellular 3H-FC to the cell surface [3]: inhibited the return of FC to the cell surface, but less effectively than did nocodazole
- initial rate of efflux of FC from prelabeled cells to plasma [7]: increased several-fold
- inhibition of the uptake of free cholesterol from LDLs ([4]; FIG. 8): > 80%
- time course of inhibition of LDL FC uptake ([4]; NEM: first 10-15 min, KNO3: 50 mM, data not shown): comparable time course

Compound: CC[C@@]1([C@@H]2O[C@@H]([C@H]3O[C@@](O)(CO)[C@H](C)C[C@@H]3C)C[C@@H]2C)CC[C@H]([C@]2(C)CC[C@]3(C[C@H](O)[C@@H](C)[C@@H]([C@@H](C)[C@@H](OC)[C@H](C)C(=O)O)O3)O2)O1 [Monensin]
- inhibition at higher concentration [1]: no increase in inhibition
- effect on uptake of 3H-FC from LDL [1]: effective in reducing the selective uptake of FC from LDL
- effect on selective uptake of FC from LDL in GM2000 cells ([8]; in words): Comparable results

Compound: [NH4+].[O]=[V](=[O])[O-] [NH4 -vanadate]
- effect on LDL FC uptake [4]: without effect

Compound: [N-]=[N+]=[N-].[Na+] [Na-azide]
- effect on LDL FC uptake [4]: without effect

Compound: COC(=O)Nc1nc2ccc(C(=O)c3cccs3)cc2[nH]1 [Nocodazole]
- effect on transport of intracellular 3H-FC to the cell surface [3]: reduced
- effect on uptake of 3H-FC from LDL [1]: without effect

Compound: CC[C@]1(O)C[C@@H]2CN(CCc3c([nH]c4ccccc34)[C@@](C(=O)OC)(c3cc4c(cc3OC)N(C)[C@H]3[C@@](O)(C(=O)OC)[C@H](OC(C)=O)[C@]5(CC)C=CCN6CC[C@]43[C@@H]65)C2)C1 [Vinblastine]
- effect on transport of intracellular 3H-FC to the cell surface [3]: unaffected
- effect on uptake of 3H-FC from LDL [1]: without effect

Compound: Cc1c2oc3c(C)ccc(C(=O)N[C@@H]4C(=O)N[C@H](C(C)C)C(=O)N5CCC[C@H]5C(=O)N(C)CC(=O)N(C)[C@@H](C(C)C)C(=O)O[C@@H]4C)c3nc-2c(C(=O)N[C@@H]2C(=O)N[C@H](C(C)C)C(=O)N3CCC[C@H]3C(=O)N(C)CC(=O)N(C)[C@@H](C(C)C)C(=O)O[C@@H]2C)c(N)c1=O [actinomycin, actinomycin D] (I: T[dV]P[Sar][NMeV] / II: T[dV]P[Sar][NMeV]; ester I:1-I:C, II:1-II:C; linker I:N-II:N via Actinocin(9to1))
- t1/2 of decrease in caveolin mRNA levels ([2]; actinomycin 2.5 μg ml^-1, activated and baseline cells, n=4): 8.0 ± 1 h
- caveolin mRNA level relative to total RNA ([2]; baseline cells, 8 h with actinomycin, 37° C.): 0.52

Compound: C[C@@]1(CO)[C@H](O)CC[C@@]2(C)[C@H]1CC[C@H]1C[C@@H]3C[C@@]12CC[C@]3(O)CO [aphidicolin]
- cells synchronized to enter S-phase ([9]; Example 4, following removal of inhibitor): ~ 85%
- cells in synchrony at the beginning of S phase ([9]; Example 5, 4 then 8 μg/ml aphidicolin): 83.9±3.1%

Compound: CC(=O)O[C@H]1C(=O)[C@@]2(C)[C@H]([C@H](OC(=O)c3ccccc3)[C@]3(O)C[C@H](OC(=O)[C@H](O)[C@@H](NC(=O)c4ccccc4)c4ccccc4)C(C)=C1C3(C)C)[C@]1(OC(C)=O)CO[C@@H]1C[C@@H]2O [taxol]
- effect on uptake of 3H-FC from LDL [1]: without effect

Compound: heparin
- inhibition of LDL FC influx ([4]; normal fibroblasts, 0.1 mg/ml heparin, LDL 150 Fg FC ml^-1, 10 min): Approximately 80%
- inhibition of LDL FC influx ([8]; GM 2000 cells, 0.1 mg/ml heparin, LDL 150 Fg FC ml^-1, 10 min): Approximately 80%
